Where “and” joins values, the source holds several entries; their conditions need not be identical. Identical values can stand only once.
Test system: OVCAR-5 complex spheroids, viability
Experiment: Anticancer human tumor OVCAR-5 cell line growth inhibition;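 note: spheroids exposed to agents for seven days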;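 for viability, T/C: 100% = DMSO vehicle control wells viability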
Conditions: for viability, T/C: stronger effect = lower value; active = viability on the fitted dose curve at most 10% of control; inactive = the rest
Method in brief: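 Complex spheroids of tumor cells with HUVEC and human MSCs, exposed to iadademstat combined with other agents. Each agent tested in half-log steps from near clinical Cmax (else 10 microM top), DMSO ≤0.25%.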

[1] = curve of first compound, second compound 0.1 µM
[2] = curve of first compound, second compound 0.316 µM
[3] = curve of first compound, second compound 1 µM
[4] = curve of first compound, second compound 3.16 µM
[5] = curve of first compound, second compound 10 µM

CCN(c1cc(-c2ccc(CN3CCOCC3)cc2)cc(C(=O)NCc2c(C)cc(C)[nH]c2=O)c1C)C1CCOCC1 + NC1CC1c1ccc(-c2cccc(O)c2)cc1
inactive: viability, T/C (second compound 0.1 µM, first compound 0.00949 µM) 87.6% | viability, T/C (second compound 0.1 µM, first compound 0.03 µM) 98.8% | viability, T/C (second compound 0.1 µM, first compound 0.0949 µM) 106% | viability, T/C (second compound 0.1 µM, first compound 0.3 µM) 97% | viability, T/C (second compound 0.1 µM, first compound 0.949 µM) 107% | viability, T/C (second compound 0.1 µM, first compound 3 µM) 92.6% | viability, T/C (second compound 0.316 µM, first compound 0.00949 µM) 102% | viability, T/C (second compound 0.316 µM, first compound 0.03 µM) 108% | viability, T/C (second compound 0.316 µM, first compound 0.0949 µM) 99.3% | viability, T/C (second compound 0.316 µM, first compound 0.3 µM) 94.8% | viability, T/C (second compound 0.316 µM, first compound 0.949 µM) 104% | viability, T/C (second compound 0.316 µM, first compound 3 µM) 102% | viability, T/C (second compound 1 µM, first compound 0.00949 µM) 91.5% | viability, T/C (second compound 1 µM, first compound 0.03 µM) 84.4% | viability, T/C (second compound 1 µM, first compound 0.0949 µM) 94.3% | viability, T/C (second compound 1 µM, first compound 0.3 µM) 103% | viability, T/C (second compound 1 µM, first compound 0.949 µM) 91.9% | viability, T/C (second compound 1 µM, first compound 3 µM) 98.5% | viability, T/C (second compound 3.16 µM, first compound 0.00949 µM) 88.8% | viability, T/C (second compound 3.16 µM, first compound 0.03 µM) 87.7% | viability, T/C (second compound 3.16 µM, first compound 0.0949 µM) 90.4% | viability, T/C (second compound 3.16 µM, first compound 0.3 µM) 90.9% | viability, T/C (second compound 3.16 µM, first compound 0.949 µM) 90.6% | viability, T/C (second compound 3.16 µM, first compound 3 µM) 92.9% | viability, T/C (second compound 10 µM, first compound 0.00949 µM) 86.7% | viability, T/C (second compound 10 µM, first compound 0.03 µM) 91.9% | viability, T/C (second compound 10 µM, first compound 0.0949 µM) 85.5% | viability, T/C (second compound 10 µM, first compound 0.3 µM) 93.4% | viability, T/C (second compound 10 µM, first compound 0.949 µM) 95.5% | viability, T/C (second compound 10 µM, first compound 3 µM) 91.1%
> 3000 nM: IC50 [1] | IC50 [2] | IC50 [3] | IC50 [4] | IC50 [5]

CC1COCCN1c1cc(-c2ccnn2C)c2ccnc(-c3ccn[nH]3)c2n1 (configuration not stated) + NC1CC1c1ccc(-c2cccc(O)c2)cc1
25.2 nM: IC50 [4]
19.9 nM: IC50 [5]
inactive: viability, T/C (second compound 0.1 µM, first compound 0.00316 µM) 98.8% | viability, T/C (second compound 0.1 µM, first compound 0.01 µM) 79.8% | viability, T/C (second compound 0.1 µM, first compound 0.0316 µM) 49% | viability, T/C (second compound 0.1 µM, first compound 0.1 µM) 35.6% | viability, T/C (second compound 0.1 µM, first compound 0.316 µM) 31.7% | viability, T/C (second compound 0.1 µM, first compound 1 µM) 27.9% | viability, T/C (second compound 0.316 µM, first compound 0.00316 µM) 105% | viability, T/C (second compound 0.316 µM, first compound 0.01 µM) 79.1% | viability, T/C (second compound 0.316 µM, first compound 0.0316 µM) 49.6% | viability, T/C (second compound 0.316 µM, first compound 0.1 µM) 36.5% | viability, T/C (second compound 0.316 µM, first compound 0.316 µM) 30.4% | viability, T/C (second compound 0.316 µM, first compound 1 µM) 27.9% | viability, T/C (second compound 1 µM, first compound 0.00316 µM) 91.3% | viability, T/C (second compound 1 µM, first compound 0.01 µM) 72.8% | viability, T/C (second compound 1 µM, first compound 0.0316 µM) 42.3% | viability, T/C (second compound 1 µM, first compound 0.1 µM) 33.4% | viability, T/C (second compound 1 µM, first compound 0.316 µM) 27.3% | viability, T/C (second compound 1 µM, first compound 1 µM) 25.8% | viability, T/C (second compound 3.16 µM, first compound 0.00316 µM) 88.9% | viability, T/C (second compound 3.16 µM, first compound 0.01 µM) 75.1% | viability, T/C (second compound 3.16 µM, first compound 0.0316 µM) 43% | viability, T/C (second compound 3.16 µM, first compound 0.1 µM) 32.8% | viability, T/C (second compound 3.16 µM, first compound 0.316 µM) 31.1% | viability, T/C (second compound 3.16 µM, first compound 1 µM) 25.3% | viability, T/C (second compound 10 µM, first compound 0.00316 µM) 95.9% | viability, T/C (second compound 10 µM, first compound 0.01 µM) 62.1% | viability, T/C (second compound 10 µM, first compound 0.0316 µM) 42.5% | viability, T/C (second compound 10 µM, first compound 0.1 µM) 30.4% | viability, T/C (second compound 10 µM, first compound 0.316 µM) 31.3% | viability, T/C (second compound 10 µM, first compound 1 µM) 26%
24.6 nM: IC50 [3]
33 nM: IC50 [2]
31.6 nM: IC50 [1]

O=C(c1cc(Cc2n[nH]c(=O)c3ccccc23)ccc1F)N1CCN(C(=O)C2CC2)CC1
> 10000 nM: IC50 (curve of compound)
inactive: viability, T/C (compound 0.0316 µM) 92.2% and 111% | viability, T/C (compound 0.1 µM) 109% and 98.7% | viability, T/C (compound 0.316 µM) 95.8% and 102% | viability, T/C (compound 1 µM) 90.8% and 91.7% | viability, T/C (compound 3.16 µM) 87.7% and 73.7% | viability, T/C (compound 10 µM) 79.7% and 69.6%
